# Measurements: patent publication US20050221285A1, “Method for identifying or screening anti-viral agents” (priority 2001, published 2005)
# Tested on: RSV Long wild type
# Experiment: Assay for compounds active against RSV (HEp2 cells, MTT cell viability)
# Settings: human respiratory syncytial virus, HEp-2
# Protocol: Graded concentrations of test compounds were prepared by serial dilution in 96 well tissue culture plates containing 100 μL per well of assay media (Eagles Minimal Essential Medium (MEM) supplemented with 2% foetal bovine serum and Glutamine alanyl-L-glutamine). […] 1.5×10^4 of the diluted cells were added to several individual wells of each 96 well plate which were designated uninfected control wells. The remaining cell suspension was exposed to infectious RSV by addition of sufficient virus to the suspension to yield a concentration of 0.4 plaque forming units per cell. The cell-virus suspension was mixed well by inversion and 100 μL immediately dispensed into the remaining wells of the 96 well plates. Assay plates were incubated in a 37° C. incubator for 5 days. Viral replication was quantified by determination of cell viability substantially as described by Watanabe and colleagues (Watanabe, W. et al., J. Virol. Methods, 48: 257-265, 1994). Briefly, 100 μL of 3 mg/mL MTT (3(4,5-dimethylthiazol-2-yl)-2,5-diphenyltetrazolium bromide) was added to each well and plates incubated at 37° C. in a 5% CO2 incubator for 2 hours. […] The extent of metabolism was measured via determination of absorbance using a computer-controlled microplate reader at 540 nm with a reference wavelength of 690 nm. […]
smiles,measurement,value
"NC(=O)c1ncn(C2O[C@H](CO)[C@@H](O)[C@H]2O)n1 (stereo partly drawn) [Ribavirin, 1-D-ribofuranosyl-1H-1,2,4-triazole-3-carboxamide]",EC50,5.54 µg/mL
